Where a name gives a salt, the structure may show the parent alone. Read-outs that look alike come from different tables or passages of the source.
Tests used:
[1] = test system: Zymosan Stimulated Macrophaqes; test: Test A: Inhibition of Arachidonic Acid Release from Zymosan Stimulated Macrophages; assay type: cell-based, mouse (female MF1); conditions: inhibition of arachidonic acid release, six concentrations (100, 50, 20, 10, 5 and 1 μM), 5 h with zymosan, read-out: Test A IC50
Protocol: Inhibition of Arachidonic Acid Release from Zymosan Stimulated Macrophaqes
Female MF1 mice (weighing 20 to 25 g) were killed using a rising concentration of CO2. The mice were laid on their backs and the abdomens wiped with 70% alcohol. The skin was pulled back, exposing the peritoneal wall. Medium A (5 ml) (see below) was injected into the peritoneal cavity of each mouse followed by approximately 1 ml of air using a 20 ml syringe and a 21 G×40 mm needle in order to form a suspension of macrophage cells. The medium and cells were then removed using a 19 G×40 mm needle. The resulting suspension was returned to a sterile beaker kept on ice. The extracts from all the mice were pooled and this pooled cell suspension was counted using a Coulter counter and adjusted to a final cell count of 1-1.3×10^6 cells/ml prior to labelling with [^3 H]-arachidonic acid. Typically five mice provided sufficient cells for each multiwell plate.
Sufficient [^3 H]-arachidonic acid in ethanol to give a final concentration of 1.6 μCi/ml (equivalent to 40 μCi/plate) was blown to dryness under nitrogen. The arachidonic acid was then resuspended in 1 or 2 ml of the cell suspension which was then mixed with the remainder of the cell suspension in a centrifuge bottle. The labelled cell suspension was then plated out into sterile plastic 96 flat-bottomed well plates (250 μl per well) and incubated overnight at 37° C. in a moist atmosphere of 5% CO2, 95% air.
The following day, non-adherent cells were removed by washing 3 times with sterile phosphate buffered saline (PBS). The adherent peritoneal macrophages were then cultured for a further 24 hours in the presence or absence of drugs, in medium B (see below) at 37° in a 5% CO2 atmosphere in order to measure the effects of drugs on the spontaneous release of arachidonic acid in the absence of stimulus. After this incubation, supernatants were removed to give media 1 and stored in sealed multi-well plates at 4° C. prior to scintillation counting. Drugs which potentiated spontaneous release of arachidonic acid (125% of controls) were deemed to be toxic at the concentration at which this phenomenon occurred. The supernatants were replaced by fresh medium C containing fresh drug and a stimulus. Three drugs were tested at six concentrations (100, 50, 20, 10, 5 and 1 μM) in replicates of four on each plate. The other wells contained controls consisting of a positive control (e.g. dexamethasone), medium (B) only and medium C only.
Incubation was then continued for a further 5 hours, whereupon the supernatants were collected to give media 2 and the adherent cells washed with PBS. The cells were then lysed with 100 μl of 0.1% TRITON® X100 in a 0.1% solution of bovine serum albumin in 0.9% saline and mechanically disrupted to give cell lysates. These supernatants (media 2) and cell lysates (Cells) were also stored in sealed multi-well plates at 4° C. prior to scintillation counting. 200 μl aliquots of media, or 100 μl aliquots of cells were counted using 2 ml of OPTIPHASE "HIGH SAFE" (Trademark of LKB) as scintillant.
The percentage of arachidonic acid released was calculated using the mean values for each group of 4 wells in the following equation. [formula] cpm=courts per minute
The value for the arachidonic acid release in the absence of stimulus (spontaneous, cpm of media 2) from cells which had been exposed to neither stimulus nor drug was subtracted from all equivalent values (cpm media 2, stimulated with or without drug) to give the net stimulated release. The percentage inhibition of arachidonic acid release caused by a drug may then be calculated using the following equation. [formula]
Compounds of formula I were tested at six concentrations (100, 50, 20, 10, 5 and 1 μM) and IC50 values calculated. Compounds with IC50 values<100 μM are considered to be active. Advantageous compounds have an IC50 value <50 μM.
Medium A (for peritoneal lavage) […]

[2] = test system: Carrageenan-induced rat paw oedema; test: Test B: Carrageenan-induced rat paw oedema test; assay type: in vivo, rat (female); conditions: inhibition of paw oedema, 1 h before carrageenan, 3 h after injection; for inhibition in vivo at 100 mg/kg: Rattus norvegicus, po, 3 h; for Test B % inhibition at 100 mg/kg: oral
Protocol: Carrageenan-induced rat paw oedema test
Female rats, weight range 125-150 g were fasted overnight. One of the hind legs of each animal was marked with a line at the connection between the cuboid/navicular and calcaneus/talus bones. Groups of six rats were orally dosed at 10 ml/kg, in random order, with a given dose of the test compound given as a solution or suspension in 10% (w/v) aqueous acacia solution.
One hour after dosing, 0.1 ml of 1% (w/v) sterile carrageenan λ in normal saline was injected deeply into the plantar surface of the marked hind foot of each rat. The volume of the foot (up to the marked line) was measured immediately after injection using duplicate water displacement readings. Three hours after injection the foot volume was measured again and the percentage increase in foot volume relative to the initial reading was calculated.
The increase in foot volume (i.e. the degree of oedema) in drug treated animals when compared with that in the drug untreated control gave the degree of inhibition of paw oedema by the drug.
Compounds were considered to be active in this test if they produced a 20% or greater inhibition of paw oedema in at least two out of three tests after oral dosing at 100 mg/kg. Statistical significance was assessed using the Student't test for single dose studies and Dunnett's test for multiple dose studies. More advantageous compounds were active in both Tests A and B,

Row | Compound | IC50 ([1]; Mus musculus, Macrophage, 5 h) [µM] | inhibition in vivo at 100 mg/kg [2] [%] | IC50 [1] [µM] | Test B % inhibition at 100 mg/kg [2] [%]
1 | CCOC(=O)C=Cc1ccc(CNCCCn2ccnc2C)cc1 [Example 51, ethyl 4-[3-(2-methylimidazol-1-yl)propylaminomethyl]cinnamate dihydrochloride] | 20 | 1 |  | 
2 | Cc1ncn(CCCNC(C)(C)c2ccc(Cl)cc2)c1C [Example 70, N-[1-(4-Chlorophenyl)-1-methylethyl]-3-(4,5-dimethylimidazol-1-yl)propylamine] | 11 | 21 |  | 
3 | N-[1-(4-Chlorophenyl)ethyl]-3-(4/5-methylimidazol-1-yl)propylamine [Example 54] |  |  | 12 | 63
4 | Cc1cn(CCCNC(C)c2ccc(Cl)cc2)c(-c2ccccc2)n1 (stereo not drawn) [Example 33, N-[1-(4-chlorophenyl)ethyl]-3-(4-methyl-2-phenyl-imidazol-1-yl)propylamine] | 10 | 2 |  | 
5 | CC(NCCCn1ccnc1)c1ccc(Cl)cc1 (single isomer, unassigned; (+)) [Example 93, (+)N-[1-(4-chlorophenyl)ethyl]-3-(imidazol-1-yl)-propylamine (+) ditartrate] |  |  | 16 | 57
6 | CC(NCCCn1ccnc1-c1ccccc1)c1ccc(Cl)cc1 (stereo not drawn) [Example 25, N-[1-(4-Chlorophenyl)ethyl]-3-(2-phenylimidazol-1-yl)propylamine dihydrochloride hydrate] | 19 | 34 |  | 
7 | Cc1cn(CCCNC(C)c2ccc(Cl)cc2)c(Cc2ccccc2)n1 (stereo not drawn) [Example 32, 3-[2-benzyl-4-methylimidazol-1-yl]-N-[1-(4-chlorophenyl)ethyl]propylamine] | 6 | 35 |  | 
8 | CC(NCCCn1cnc(Cl)c1Cl)c1ccc(Cl)cc1 (stereo not drawn) [Example 67, N-[1-(4-Chlorophenyl)ethyl]-3-(4,5-dichloroimidazol-1-yl)propylaminesesquihydrochloride] | 18 | 42 |  | 
9 | Cc1cc(Cl)ccc1CNCCCn1ccnc1 [Example 40, N-(4-Chloro-2-methylbenzyl)-3-(imidazol-1-yl)propylamine dihydrochloride] | 50 | 31 |  | 
10 | CC(C)(NCCCn1cncc1CO)c1ccc(Cl)cc1 [Example 88, 1-{3-[1-(4-Chlorophenyl)-1-methylethylamino]propyl}imidazol-5-yl-methanol dihydrochloride] | 60 | 6 |  | 
11 | Cc1ccc(C(C)(C)NCCCn2ccnc2C)cc1 [Example 73, 3-(2-Methylimidazol-1-yl)-N-[1-methyl-1-(p-tolyl)ethyl]propylamine dihydrochloride] | 49 | 8 |  | 
12 | CCOC(=O)c1ccc(C(C)(C)NCCCn2ccnc2)cc1 [Example 77, Ethyl 4-{1-[3-(imidazol-1-yl)propylamino]-1-methylethyl}benzoate] | 82 | 23 |  | 
13 | CC(=O)OCc1ncn(CCCNC(C)(C)c2ccc(Cl)cc2)c1C [Example 98, 1-{3-[1-(4-chlorophenyl)-1-methylethylamino]propyl}-5-methylimidazol-4-ylmethyl acetate dihydrochloride] | 45 | 4 |  | 
14 | Cc1ncn(CCCNC(C)c2ccc(Cl)cc2)c1C (stereo not drawn) [Example 24, N-[1-(4-Chlorophenyl)ethyl]-3-(4,5-dimethylimidazol-1-yl)propylamine dihydrochloride] | 11 | 34 |  | 
15 | CCC(CC)(NCCCn1ccnc1)c1ccccc1 [Example 80, N-(1-Ethyl-1-phenylpropyl)-3-(imidazol-1-yl)propylamine] | 54 | 52 |  | 
16 | CC(C)c1nccn1CCCNCc1ccc(Cl)cc1 [Example 71, N-(4-Chlorobenzyl)-3-(2-isopropylimidazol-1-yl)propylamine-dihydrochloride] | 25 | 10 |  | 

Second part, led by results:

Row | IC50 ([1]; Mus musculus, Macrophage, 5 h) [µM] | Compound | inhibition in vivo at 100 mg/kg [2] [%] | IC50 [1] [µM] | Test B % inhibition at 100 mg/kg [2] [%]
17 | 32 | c1ccc(C(NCCCn2ccnc2)c2ccccc2)cc1 [Example 34, N-benzhydryl-3-(imidazol-1-yl)propylamine dihydrochloride] | 47 |  | 
18 | 18 | CC(C)c1nccn1CCCNC(C)c1ccc(Cl)cc1 (stereo not drawn) [Example 65, N-[1-(4-Chlorophenyl)ethyl]-3-(2-isopropylimidazol-1-yl)propylamine] | 27 |  | 
19 | 55 | CC(NCCCn1ccnc1)c1ccc(Cl)cc1 (stereo not drawn) [Example 1, N-[1-(4-chlorophenyl)ethyl]-3-(imidazol-1-yl)propylamine dihydrochloride] | 59 |  | 
20 | 12 | CC(NCCCn1ccnc1)c1ccc(OCc2ccccc2)cc1 (stereo not drawn) [Example 5, N-[1-(4-Benzyloxyphenyl)ethyl]-3-(imidazol-1-yl)propylamine] | 5 |  | 
21 | 24 | CCC(NCCCn1ccnc1)c1ccc(Cl)cc1 (stereo not drawn) [Example 30, N-[1-(4-chlorophenyl)propyl]-3-(imidazol-1-yl)propylamine oxalate] | 39 |  | 
22 | 16 | Clc1ccc(C2(NCCCn3ccnc3)CC2)cc1 [Example 82, N-[1-(4-Chlorophenyl)cycloprop-1-yl]-3-(imidazol-1-yl)propylamine dihydrochloride] | 38 |  | 
23 | 8 | Cc1nccn1CCCNC(C)c1ccc(Cl)cc1 (stereo not drawn) [Example 27, N-[1-(4-Chlorophenyl)ethyl]-3-(2-methylimidazol-1-yl)propylamine dihydrochloride] | 27 |  | 
24 | 12 | CC(NCCCn1ccnc1)c1ccc(C(C)(C)C)cc1 (stereo not drawn) [Example 19, N-[1-(4-Tert-butylphenyl)ethyl]-3-(imidazol-1-yl)propylamine] | 27 |  | 
25 | 47 | Cc1ccc(C(C)(C)NCCCn2ccnc2)cc1 [Example 75, 3-(Imidazol-1-yl)-N-[1-methyl-1-(p-tolyl)ethyl]propylamine dihydrochloride] | 42 |  | 
26 | 60 | CC(NCCCn1ccnc1)c1ccc(Br)cc1 (stereo not drawn) [Example 14, N-[1-(4-Bromophenyl)ethyl]-3-(imidazol-1-yl)propylamine] | 60 |  | 
27 | 34 | CC(NCCCn1ccnc1)c1ccc(Cl)cc1O (stereo not drawn) [Example 29, 5-chloro-2-{1-[3-(imidazol-1-yl)propylamino]ethyl}phenol dihydrochloride] | 36 |  | 

— patent US5547972A, “Therapeutic agents useful for treating inflammatory diseases” (The Boots Company PLC, priority 1991, dated 1996)
